Patent US8772266B2, “Fungicide pyrazole carboxamides derivates” (Bayer Cropscience AG, priority 2009, dated 2014)

Key:
[1] = logP by HPLC on reversed-phase column (EEC Directive 79/831 Annex V.A8); conditions: 40° C., 0.1% aqueous formic acid and acetonitrile, linear gradient 10% to 90% acetonitrile
Sphaerotheca fuliginea = assay: In vivo preventive test on Sphaerotheca fuliginea (cucumber), Example G; conditions: 10 ppm of active ingredient, evaluated 7 days after inoculation
Text: After the spray coating has dried on, the plants are inoculated with an aqueous spore suspension of Sphaerotheca fuliginea.

Fusarium nivale = assay: In vivo curative test on Fusarium nivale (wheat); conditions: 500 ppm of active ingredient, evaluated 8 days after inoculation
[2] = HPLC, reversed-phase column (C 18)
[3] = HPLC on reversed-phase column (C 18)

Row | SMILES | logP [1, 2] | disease control (Sphaerotheca fuliginea) [%] | also measured
1 | CC1CCc2cccc(C(C)N(C(=O)c3c(C(F)F)nn(C)c3F)C3CC3)c2C1 (mixture of isomers) [Example 50] | 4.59 | 100 | –
2 | CCCCCc1ccccc1C(C)N(C(=O)c1c(C(F)F)nn(C)c1F)C1CC1 (racemic) [Example 26] | 4.92 | 100 | –
3 | CC(c1cccc2c1CCC(C)(C)C2)N(C(=O)c1c(C(F)F)nn(C)c1F)C1CC1 (racemic) [Example 44] | 4.89 | – | disease control (Fusarium nivale): 100%
4 | Cc1cc(C)cc(C(C)N(C(=O)c2c(C(F)F)nn(C)c2F)C2CC2)c1 (racemic) [Example 46] | 3.8 | – | disease control (Fusarium nivale): 100%
5 | CC(c1cccc2c1CCCC2)N(C(=O)c1c(C(F)F)nn(C)c1F)C1CC1 (racemic) [Example 51] | 4.14 | – | disease control (Fusarium nivale): 100%
6 | CC(c1cccc2c1OC(F)(F)O2)N(C(=O)c1c(C(F)F)nn(C)c1F)C1CC1 (racemic) [Example 72] | 3.58 | 100 | –
7 | CC(c1cccc2c1CCC(C)(C)C2)N(C(=O)c1c(C(F)F)nn(C)c1F)C1CC1 (single isomer, unassigned) [Example 44a] | – | 100 | –
8 | Cn1nc(C(F)F)c(C(=O)N(Cc2cc(Cl)ccc2Br)C2CC2)c1F [Example 4] | 3.67 | – | disease control (Fusarium nivale): 100%
9 | Cn1nc(C(F)F)c(C(=O)N(Cc2ccccc2I)C2CC2)c1F [Example 9] | 3.37 | – | disease control (Fusarium nivale): 100%
10 | Cn1nc(C(F)F)c(C(=O)N(Cc2c(F)cccc2[Si](C)(C)C)C2CC2)c1F [Example 11] | 4.31 | 100 | –
11 | Cc1ccc(C(F)(F)F)c(CN(C(=O)c2c(C(F)F)nn(C)c2F)C2CC2)c1 [Example 12] | 3.78 | 100 | –
12 | CC[Si](C)(C)c1ccccc1CN(C(=O)c1c(C(F)F)nn(C)c1F)C1CC1 [Example 13] | 4.75 | 100 | –
13 | Cn1nc(C(F)F)c(C(=O)N(Cc2cc(F)c(Br)cc2Br)C2CC2)c1F [Example 16] | 3.96 | – | disease control (Fusarium nivale): 100%
14 | Cc1cc(Br)c(CN(C(=O)c2c(C(F)F)nn(C)c2F)C2CC2)cc1Br [Example 17] | 4.19 | – | disease control (Fusarium nivale): 100%
15 | Cn1nc(C(F)F)c(C(=O)N(Cc2ccc(Cl)cc2I)C2CC2)c1F [Example 20] | 3.99 | – | disease control (Fusarium nivale): 100%
16 | CCCCCc1cccc(Cl)c1CN(C(=O)c1c(C(F)F)nn(C)c1F)C1CC1 [Example 27] | 5 | 100 | –
17 | CC(C)Cc1cccc(Cl)c1CN(C(=O)c1c(C(F)F)nn(C)c1F)C1CC1 [Example 32] | 4.44 | 100 | –
18 | Cn1nc(C(F)F)c(C(=O)N(Cc2ccccc2C2CC2)C2CC2)c1F [Example 47] | 3.44 | 100 | –
19 | Cn1nc(C(F)F)c(C(=O)N(Cc2c([Si](C)(C)C)ccc(F)c2F)C2CC2)c1F [Example 49] | 4.36 | 100 | –
20 | CC(c1ncc(Cl)cc1Cl)N(C(=O)c1c(C(F)F)nn(C)c1F)C1CC1 (stereo not shown) [Example 62] | 3.48 | 100 | –
21 | Cn1nc(C(F)F)c(C(=O)N(Cc2c(C(F)(F)F)ccc(F)c2F)C2CC2)c1F [Example 68] | 3.31 | 100 | –
22 | CC(c1ccc(Cl)cc1Cl)N(C(=O)c1c(C(F)F)nn(C)c1F)C1CC1 (stereo not shown) [Example 70] | 3.83 | 100 | –
23 | Cn1nc(C(F)F)c(C(=O)N(Cc2ccccc2C2CCCC2)C2CC2)c1F [Example 82] | 4.2 | 100 | –
24 | Cn1nc(C(F)F)c(C(=O)N(Cc2c(Cl)cccc2Br)C2CC2)c1F [Example 83] | 3.42 | 100 | –

Row | SMILES | logP [1, 2] | disease control (Sphaerotheca fuliginea) [%] | also measured
25 | CCCCC(c1ccccc1)N(C(=O)c1c(C(F)F)nn(C)c1F)C1CC1 (stereo not shown) [Example 94] | 4.26 | – | –
26 | CC(c1ccccc1)N(C(=O)c1c(C(F)F)nn(C)c1F)C1CC1 (stereo not shown) [Example 95] | 3.06 | – | –
27 | CC(c1cc(C(F)(F)F)ccc1Cl)N(C(=O)c1c(C(F)F)nn(C)c1F)C1CC1 (stereo not shown) [Example 96] | 3.89 | – | –
28 | Cn1nc(C(F)F)c(C(=O)N(C2CC2)C2CCCc3cccc(Br)c32)c1F (stereo not shown) [Example 97] | 3.78 | – | –
29 | CC(c1ccccc1Br)N(C(=O)c1c(C(F)F)nn(C)c1F)C1CC1 (stereo not shown) [Example 98] | 3.31 | – | –
30 | Cn1nc(C(F)F)c(C(=O)N(C2CC2)C2CCC(C)(C)c3ccccc32)c1F (stereo not shown) [Example 99] | 4.16 | 100 | –
31 | CCCCC1Cc2ccccc2C1N(C(=O)c1c(C(F)F)nn(C)c1F)C1CC1 (stereo not shown) [Example 100] | – | – | logP [1, 3]: 4.85
32 | CC(c1cc(Cl)ccc1C(F)(F)F)N(C(=O)c1c(C(F)F)nn(C)c1F)C1CC1 (stereo not shown) [Example 101] | – | 100 | logP [1, 3]: 3.92
33 | CC(c1cccc(I)c1)N(C(=O)c1c(C(F)F)nn(C)c1F)C1CC1 (stereo not shown) [Example 103] | – | – | logP [1, 3]: 3.76
34 | Cn1nc(C(F)F)c(C(=O)N(Cc2cccc(C(F)(F)F)c2Cl)C2CC2)c1F [Example 104] | – | – | logP [1, 3]: 3.64
35 | Cn1nc(C(F)F)c(C(=O)N(Cc2c(Cl)cc(Cl)cc2Cl)C2CC2)c1F [Example 107] | – | – | logP [1, 3]: 3.99
36 | Cc1cccc(C)c1CN(C(=O)c1c(C(F)F)nn(C)c1F)C1CC1 [Example 108] | – | – | logP [1, 3]: 3.31
37 | Cn1nc(C(F)F)c(C(=O)N(C2CC2)C2CCc3cccc(Cl)c32)c1F (stereo not shown) [Example 109] | – | – | logP [1, 3]: 3.42
38 | Cn1nc(C(F)F)c(C(=O)N(Cc2ccccc2Oc2ccc(F)cc2)C2CC2)c1F [Example 110] | – | – | logP [1, 3]: 3.85
39 | CC(C)Cc1ccc(F)c(F)c1CN(C(=O)c1c(C(F)F)nn(C)c1F)C1CC1 [Example 112] | – | 100 | –
40 | Cn1nc(C(F)F)c(C(=O)N(Cc2c(Cl)cccc2C2CC2)C2CC2)c1F [Example 113] | – | 100 | –
41 | CCCCc1cccc(Cl)c1CN(C(=O)c1c(C(F)F)nn(C)c1F)C1CC1 [Example 115] | – | 100 | –
42 | Cn1nc(C(F)F)c(C(=O)N(Cc2c(Cl)cccc2[Si](C)(C)C)C2CC2)c1F [Example 116] | – | 100 | –
43 | Cn1nc(C(F)F)c(C(=O)N(Cc2c(C(F)(F)F)ccc(F)c2C(F)(F)F)C2CC2)c1F [Example 117] | – | 100 | –
44 | Cn1nc(C(F)F)c(C(=O)N(Cc2cc(F)ccc2[Si](C)(C)C)C2CC2)c1F [Example 118] | – | 100 | –
45 | CCCCc1ccc(Cl)cc1CN(C(=O)c1c(C(F)F)nn(C)c1F)C1CC1 [Example 119] | – | 100 | –
46 | CC(C)Cc1ccc(Cl)cc1CN(C(=O)c1c(C(F)F)nn(C)c1F)C1CC1 [Example 120] | – | 100 | –
47 | CCCCc1ccc(F)cc1CN(C(=O)c1c(C(F)F)nn(C)c1F)C1CC1 [Example 121] | – | 100 | –
48 | Cn1nc(C(F)F)c(C(=O)N(Cc2cc(F)ccc2C2CC2)C2CC2)c1F [Example 123] | – | 100 | –

Row | SMILES | logP [1, 2] | disease control (Sphaerotheca fuliginea) [%] | also measured
49 | CCc1cccc(Cl)c1CN(C(=O)c1c(C(F)F)nn(C)c1F)C1CC1 [Example 124] | – | 100 | –
50 | CCCCc1ccc(F)c(F)c1CN(C(=O)c1c(C(F)F)nn(C)c1F)C1CC1 [Example 126] | – | 100 | –
51 | CC(C)Cc1cccc(F)c1CN(C(=O)c1c(C(F)F)nn(C)c1F)C1CC1 [Example 127] | – | 100 | –
52 | CCCCc1cccc(F)c1CN(C(=O)c1c(C(F)F)nn(C)c1F)C1CC1 [Example 128] | – | 100 | –
53 | Cn1nc(C(F)F)c(C(=O)N(Cc2c(F)cccc2C2CC2)C2CC2)c1F [Example 130] | – | 100 | –
54 | CC(C)c1ccccc1CN(C(=S)c1c(C(F)F)nn(C)c1F)C1CC1 [Example 131] | – | 100 | logP [1, 3]: 4.36
55 | Cn1nc(C(F)F)c(C(=S)N(Cc2c(Cl)cccc2C(F)(F)F)C2CC2)c1F [Example 132] | – | 100 | logP [1, 3]: 4.23
56 | CCc1ccccc1CN(C(=S)c1c(C(F)F)nn(C)c1F)C1CC1 [Example 133] | – | – | logP [1, 3]: 4.06
57 | CC(C)c1ccc(F)cc1CN(C(=O)c1c(C(F)F)nn(C)c1F)C1CC1 [Example 135] | – | 100 | –
58 | CC(C)c1ccc(F)c(F)c1CN(C(=O)c1c(C(F)F)nn(C)c1F)C1CC1 [Example 136] | – | 100 | –
59 | Cn1nc(C(F)F)c(C(=O)N(Cc2c(F)cccc2C2CCCC2)C2CC2)c1F [Example 137] | – | 100 | –
60 | Cn1nc(C(F)F)c(C(=O)N(Cc2cc(F)ccc2C2CCCC2)C2CC2)c1F [Example 138] | – | 100 | –
61 | Cn1nc(C(F)F)c(C(=O)N(Cc2c(C3CCCC3)ccc(F)c2F)C2CC2)c1F [Example 139] | – | 100 | –
62 | Cn1nc(C(F)F)c(C(=O)N(Cc2c(Cl)cccc2C2CCCC2)C2CC2)c1F [Example 141] | – | 100 | –
63 | CC(C)c1ccc(F)cc1CN(C(=O)c1c(C(F)F)nn(C)c1Cl)C1CC1 [Example 146] | – | – | logP [1, 3]: 3.92
64 | CC(C)Cc1cccc(Cl)c1CN(C(=O)c1c(C(F)F)nn(C)c1Cl)C1CC1 [Example 150] | – | – | logP [1, 3]: 4.74
65 | Cn1nc(C(F)F)c(C(=O)N(Cc2c(Cl)cccc2[Si](C)(C)C)C2CC2)c1Cl [Example 151] | – | – | logP [1, 3]: 4.82
66 | Cn1nc(C(F)F)c(C(=O)N(Cc2cc(Cl)ccc2C2CCCC2)C2CC2)c1Cl [Example 152] | – | – | logP [1, 3]: 4.92
67 | CC(C)CC(C)c1ccccc1CN(C(=O)c1c(C(F)F)nn(C)c1F)C1CC1 (stereo not shown) [Example 154] | – | – | logP [1, 3]: 4.82
68 | Cn1nc(C(F)F)c(C(=O)N(Cc2ccccc2C2CC2C2CC2)C2CC2)c1F (stereo not shown) [Example 155] | – | – | logP [1, 3]: 4.25
69 | CCC(C)c1ccccc1CN(C(=O)c1c(C(F)F)nn(C)c1F)C1CC1 (stereo not shown) [Example 156] | – | – | logP [1, 3]: 4.06
70 | CC(C)c1ccccc1CN(C(=O)c1c(C(F)F)nn(C)c1F)C1CC1C (stereo not shown) [Example 157] | – | 100 | –
